Data taken from PubChem BioAssay (NCI).
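Test compounds were applied to cells in 96-well plates for 48 hours at 5 doses. Abbreviation: GI50, concentration required for 50% inhibition of growth. TGI marks complete inhibition of growth.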

Assays:
Test in all cases: DTP human tumour cell line panel, 48 h
[1] = tested on: CAKI-1 renal
[2] = tested on: NCI/ADR-RES ovarian
[3] = tested on: OVCAR-3 ovarian
[4] = tested on: OVCAR-4 ovarian
[5] = tested on: SF-268 CNS
[6] = tested on: SK-MEL-2 melanoma
[7] = tested on: SK-OV-3 ovarian
[8] = tested on: SN12C renal
[9] = tested on: T-47D breast
[10] = tested on: UO-31 renal

Structure (SMILES)	GI50 [1]	TGI [1]	GI50 [2]	TGI [2]	GI50 [3]	TGI [3]	GI50 [4]	TGI [4]	GI50 [5]	TGI [5]	GI50 [6]	TGI [6]	GI50 [7]	TGI [7]	GI50 [8]	TGI [8]	GI50 [9]	TGI [9]	GI50 [10]	TGI [10]
CCc1cccc(NC(=O)Nc2ccc(Oc3ccc4nc(NC(=O)OC)[nH]c4c3)cc2)c1	> 15.4 µM	> 25 µM	10.5 µM	> 25 µM	3.65 µM	10 µM	4.45 µM	9.89 µM	4.33 µM	15.9 µM	2.94 µM	12.3 µM	4.99 µM	11.5 µM	8.43 µM	> 25 µM	3.56 µM	> 15.6 µM	> 25 µM	> 25 µM
CCCCC(OC(=O)c1ccc(N)cc1)C(=O)Nc1nc(CC(=O)OCC)cs1 (stereo not given)	39.1 µM	> 100 µM	33.9 µM	> 100 µM	23.5 µM	82 µM	29.8 µM	> 100 µM	43.5 µM	> 100 µM	25.7 µM	77.4 µM	29.1 µM	> 100 µM	41.6 µM	> 100 µM	38.7 µM	> 100 µM	40.9 µM	> 100 µM
COc1ccc(-c2cc(-c3ccc(OC)cc3)nc(NCCCNc3ccnc4cc(Cl)ccc34)n2)cc1	11.8 µM	25.8 µM	1.62 µM	3.28 µM	1.7 µM	3.14 µM	1.65 µM	3.35 µM	1.65 µM	3.3 µM	14 µM	28.4 µM	1.71 µM	3.14 µM	1.71 µM	3.34 µM	1.66 µM	3.9 µM	1.32 µM	2.6 µM
